Assay: HILIC, Waters Atlantis Premier BEH Z-HILIC, 100 × 2.1 mm, 1.7 µm, 40 °C, 0.15 mL/min, estimated dead time 1.5 min; A: water + 20 mM ammonium carbonate + 5 µM medronic acid; B: 10% water + 90% acetonitrile + 2 mM ammonium carbonate + 0.5 µM medronic acid; gradient (min/%B) 0/95 18/55 18.1/20 21.5/20 22/95 23.5/95 25.5/95
Details: stereoisomer not certain

| Compound | LC retention time |
| --- | --- |
| O=C(O)CCC(=O)C(=O)O [2-Oxoglutaric acid] | 8.94 min |
| O=C(O)CCC(O)C(=O)O (configuration not stated) [2-hydroxy glutaric acid] | 9.45 min |
| Nc1ncnc2c1ncn2C1OC(COP(=O)(O)OP(=O)(O)OP(=O)(O)O)C(O)C1O (configuration not stated) [ATP] | 13.2 min |
| Nc1ncnc2c1ncn2C1OC(CO)C(O)C1O (configuration not stated) [Adenosine] | 4.11 min |
| NC(N)=NCCCC(N)C(=O)O (configuration not stated) [Arginine] | 19.3 min |
| O=C(O)CCCCC1SCC2NC(=O)NC21 (configuration not stated) [Biotin] | 4.5 min |
| CC(C)(COP(=O)(O)OP(=O)(O)OCC1OC(n2cnc3c(N)ncnc32)C(O)C1OP(=O)(O)O)C(O)C(=O)NCCC(=O)NCCS (configuration not stated) [CoenzymeA] | 11.8 min |
| Cc1cc2nc3c(=O)[nH]c(=O)nc-3n(CC(O)C(O)C(O)COP(=O)(O)OP(=O)(O)OCC3OC(n4cnc5c(N)ncnc54)C(O)C3O)c2cc1C (configuration not stated) [FAD] | 7.24 min |
| O=C(CO)C(O)C(O)C(O)COP(=O)(O)O (configuration not stated) [Fructose 6-phosphate] | 11.3 min |
| Nc1nc2c(ncn2C2OC(COP(=O)(O)OP(=O)(O)OP(=O)(O)O)C(O)C2O)c(=O)[nH]1 (configuration not stated) [GTP] | 15.7 min |
| O=P(O)(O)OCC1OC(O)C(O)C(O)C1O (configuration not stated) [Glucose-6-phosphate] | 12.3 min |
| NC(CCC(=O)O)C(=O)O (configuration not stated) [Glutamic acid] | 9.67 min |
| NC(=O)CCC(N)C(=O)O (configuration not stated) [Glutamine] | 10.3 min |
| O=P(O)(O)OCC(O)CO (configuration not stated) [Glycerol-3-phosphate] | 10.2 min |
| OCC1OC(O)C(O)C(O)C1O (configuration not stated) [Hexose] | 7.63 min |
| O=C(O)CC(C(=O)O)C(O)C(=O)O (configuration not stated) [Isocitric acid] | 13.5 min |
| CCC(C)C(N)C(=O)O (configuration not stated) [Isoleucine] | 6.42 min |
| CC(C)CC(N)C(=O)O (configuration not stated) [Leucine] | 6.03 min |
| NCCCCC(N)C(=O)O (configuration not stated) [Lysine] | 19.5 min |
| NC(=O)C1=CN(C2OC(COP(=O)(O)OP(=O)(O)OCC3OC(n4cnc5c(N)ncnc54)C(O)C3O)C(O)C2O)C=CC1 (configuration not stated) [NADH] | 8.54 min |
| NC(=O)c1ccc[n+](C2OC(COP(=O)(O)OP(=O)(O)OCC3OC(n4cnc5c(N)ncnc54)C(OP(=O)(O)O)C3O)C(O)C2O)c1 (configuration not stated) [NADP] | 13.2 min |
| C=C(OP(=O)(O)O)C(=O)O [PEP] | 13.3 min |
| O=C(O)CCC(=O)O [Succinic Acid] | 9.51 min |
| O=C(CO)COP(=O)(O)O [Triose phosphate] | 10.2 min |
| CC(=O)NC1C(OP(=O)(O)OP(=O)(O)OCC2OC(n3ccc(=O)[nH]c3=O)C(O)C2O)OC(CO)C(O)C1O (configuration not stated) [UDP-GlcNAc] | 9.78 min |
| CCC(=O)OC(CC(=O)[O-])C[N+](C)(C)C (configuration not stated) [carnitine-C3] | 6.52 min |

The remaining lines, values ahead:

| LC retention time | Compound |
| --- | --- |
| 11.3 min | Nc1ncnc2c1ncn2C1OC(COP(=O)(O)OP(=O)(O)O)C(O)C1O (configuration not stated) [ADP] |
| 9.36 min | Nc1ncnc2c1ncn2C1OC(COP(=O)(O)O)C(O)C1O (configuration not stated) [AMP] |
| 10.1 min | CC(=O)SCCNC(=O)CCNC(=O)C(O)C(C)(C)COP(=O)(O)OP(=O)(O)OCC1OC(n2cnc3c(N)ncnc32)C(O)C1OP(=O)(O)O (configuration not stated) [Acetyl-CoA] |
| 9.85 min | C[N+](C)(C)CC(O)CC(=O)[O-] (configuration not stated) [Carnitine] |
| 13.8 min | O=C(O)CC(O)(CC(=O)O)C(=O)O [Citric acid] |
| 15.5 min | O=P(O)(O)OCC1OC(O)(COP(=O)(O)O)C(O)C1O (configuration not stated) [Fructose-1,6-bisphosphate] |
| 3.43 min | CC(O)C(=O)O (configuration not stated) [Lactic Acid] |
| 13.7 min | NC(=O)C1=CN(C2OC(COP(=O)(O)OP(=O)(O)OCC3OC(n4cnc5c(N)ncnc54)C(OP(=O)(O)O)C3O)C(O)C2O)C=CC1 (configuration not stated) [NADPH] |
| 10.2 min | NC(=O)c1ccc[n+](C2OC(COP(=O)(O)OP(=O)(O)OCC3OC(n4cnc5c(N)ncnc54)C(O)C3O)C(O)C2O)c1 (configuration not stated) [NAD] |
| 12.4 min | O=C(O)C(CO)OP(=O)(O)O (configuration not stated) [Phosphoglyceric acid A] |
| 4.59 min | O=C1CC(C(=O)O)NC(=O)N1 (configuration not stated) [dihydroorotic acid] |
